Laboratory results taken from the supplement of paper PMC8671470.

Tests used:
Conditions in all cases: 72 h
NOMO-1 [1] = system: NOMO-1
In short: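 Fifteen myeloid leukaemia lines were incubated for 72 h at 37 °C with 5% CO2 across five tenfold doses from 1 to 10,000 nM, in duplicate. ATP luminescence was normalised to vehicle and to a positive control at 10 µM and fitted with a four-parameter log-logistic model. The IC50 came from these dose–response fits.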

HL-60 [2] = test: cell viability (% survival relative to DMSO control); higher = less cytotoxic
In short: (§1)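 In 384-well plates, the full library was rescreened in duplicate on HL-60 cells in RPMI 1640 with 10% FBS, at 1–10,000 nM in five tenfold concentrations, for 72 h at 37 °C, 5% CO2. Each run also held DMSO or 100 nM of one of three metabolic inhibitors. Viability was measured by CellTiter-Glo and normalised to DMSO wells and to wells with proteasome inhibitor, present at 10 μM. Any area under the curve comes from four-parameter log-logistic fitting with drc and PharmacoGx.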

BV-173 = test: cell viability (% survival relative to DMSO control, bortezomib = 0%); higher = less cytotoxic
In short: (§2)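 Fifteen myeloid leukaemia cell lines were exposed to compounds at 1, 10, 100, 1000 or 10000 nM in 384-well plates for 72 h at 37 °C and 5% CO2. Viability was read by CellTiter-Glo luminescence and normalised, with vehicle as 100% and a 10 µM positive control as 0%. Values are percent survival averaged over duplicates.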

HEL = test: as above
In short: as §2

HL-60 [3] = test: as above
In short: as §2

K-562 = test: as above
In short: as §2

KCL-22 = test: as above
In short: as §2

KG-1 = test: as above
In short: as §2

KU-812 = test: as above
In short: as §2

LAMA-84 = test: as above
In short: as §2

ML-2 = test: as above
In short: as §2

MOLM-13 = test: as above
In short: as §2

MV4-11 = test: as above
In short: as §2

Mono-Mac-6 = test: as above
In short: as §2

NOMO-1 [4] = test: as above
In short: as §2

SHI-1 = test: as above
In short: as §2

THP-1 = test: as above
In short: as §2

HL-60 [5] = test: area under dose-response curve (viability, 1 nM-10 uM) (fraction (0-1)); higher = more sensitive
In short: as §1

Cc1[nH]n(-c2ccccc2)c(=O)c1C1(C(F)(F)F)C(=O)N(c2ccccc2)C2=C1C(=O)CC(C)(C)C2 (stereo not given)
Conditions	IC50 (cell viability) [µM]
NOMO-1 [1]	> 10

cell viability [%], HL-60 [2]
Conditions	0.001 µM	0.01 µM	0.1 µM	1 µM	10 µM
co-treatment: AZD3965 100 nM	101.7	100.9	107	98.5	102
co-treatment: DMSO vehicle	99.8	100	102	102	102
co-treatment: GSK2194069 100 nM	98.536	106	105	100.4	97.8
co-treatment: pictilisib 100 nM	97.2	95.5	101	102	104

Conditions	area under dose-response curve, co-treatment: AZD3965 100 nM	area under dose-response curve, co-treatment: DMSO vehicle	area under dose-response curve, co-treatment: GSK2194069 100 nM	area under dose-response curve, co-treatment: pictilisib 100 nM	cell viability, 1 nM [%]	cell viability, 10 nM [%]	cell viability, 100 nM [%]	cell viability, 1000 nM [%]	cell viability, 10000 nM [%]
BV-173	–	–	–	–	103	89.2	128	99.8	111
HEL	–	–	–	–	94.3	104	108	90.8	90.9
HL-60 [3]	–	–	–	–	121	120	104	77.6	103
HL-60 [5]	< 0.0301	< 0.0301	< 0.0301	< 0.0301	–	–	–	–	–
K-562	–	–	–	–	89.6	100	103	108	97.3
KCL-22	–	–	–	–	84.5	140	99.2	108	103
KG-1	–	–	–	–	96.7	97.6	97.8	93.7	107
KU-812	–	–	–	–	104	94.3	97.7	111	95.3
LAMA-84	–	–	–	–	106	92.6	99.9	110	92.4
ML-2	–	–	–	–	98.6	87.9	115	101	99.8
MOLM-13	–	–	–	–	91.4	114	98.5	100	99.8
MV4-11	–	–	–	–	105	104	99.4	97.1	96.4
Mono-Mac-6	–	–	–	–	115	98.1	105	97.1	101
NOMO-1 [4]	–	–	–	–	104	94.6	108	101	101
SHI-1	–	–	–	–	101	109	109	108	104
THP-1	–	–	–	–	101	97.5	93.8	93.2	92

O=C1N[C@@H]2[C@@H](O)[C@@H](O)[C@H](O)[C@@H](CO)N2C1=O [Kifunensine]
Conditions	IC50 (cell viability) [µM]
NOMO-1 [1]	> 10

cell viability [%], HL-60 [2]
Conditions	0.001 µM	0.01 µM	0.1 µM	1 µM	10 µM
co-treatment: AZD3965 100 nM	93.1	81.8	101	99.3	108
co-treatment: DMSO vehicle	96.82	99.24	103	101	108
co-treatment: GSK2194069 100 nM	95.7	79.8	101	91.23	91.9
co-treatment: pictilisib 100 nM	85.7	112	95.7	104	111.3

Conditions	area under dose-response curve, co-treatment: AZD3965 100 nM	area under dose-response curve, co-treatment: DMSO vehicle	area under dose-response curve, co-treatment: GSK2194069 100 nM	area under dose-response curve, co-treatment: pictilisib 100 nM	cell viability, 1 nM [%]	cell viability, 10 nM [%]	cell viability, 100 nM [%]	cell viability, 1000 nM [%]	cell viability, 10000 nM [%]
BV-173	–	–	–	–	95	106	114	86.7	90.5
HEL	–	–	–	–	99.6	105	125	87.8	109
HL-60 [3]	–	–	–	–	102	90.6	120	120	144
HL-60 [5]	< 0.0301	< 0.0301	< 0.0301	< 0.0301	–	–	–	–	–
K-562	–	–	–	–	93.2	102	99.3	87.6	107
KCL-22	–	–	–	–	107	104	102	89	101
KG-1	–	–	–	–	96.1	93.2	112	88.6	85.6
KU-812	–	–	–	–	92.5	98.4	106	83.4	96.2
LAMA-84	–	–	–	–	103	98.6	114	84.4	107
ML-2	–	–	–	–	96.5	95.4	116	95.7	90.9
MOLM-13	–	–	–	–	76.3	105	117	81.3	130
MV4-11	–	–	–	–	96.4	96.3	103	82.9	72.1
Mono-Mac-6	–	–	–	–	91.8	102	107	88.7	92.4
NOMO-1 [4]	–	–	–	–	103	102	110	88.7	100
SHI-1	–	–	–	–	96.9	99.9	105	107	136
THP-1	–	–	–	–	98.6	95.2	97.7	89	104
